# Test results published in PubChem BioAssay AID489022 (Sanford-Burnham Center for Chemical Genomics, 2010).
# The source made the active and inactive calls. No rule for the calls is given here.
# Test system: HEK-293T NF-kB luciferase reporter, luminescence counterscreen
# Experiment: inhibitors of NF-kB luciferase reporter, HEK-293T, dose response, counter-screen for BCR NF-kB inhibitor project, luminescence, B-cell screen hits (AID 489022)
row,SMILES,IC50
1,O=C(CCCN1C(=O)/C(=C/c2ccccc2Cl)SC1=S)NNC(=O)c1ccc(Cl)cc1Cl,> 80 µM (inactive)
2,COc1ccc(C(=O)Nc2ccccc2C(=O)NCc2ccco2)cc1OC,> 80 µM (inactive)
3,CCN(CC)c1ccc(/C=N/N=C(c2ccccc2)c2ccccc2)c(O)c1,> 80 µM (inactive)
4,COc1ccc(C(=O)Nc2ccc(OC)c([N+](=O)[O-])c2)cc1Br,> 80 µM (inactive)
5,CCOc1ccc(-c2cc(CCCC(=O)NCCCOC)no2)cc1,60 µM (inactive)
6,CC(=O)c1cccc(S(=O)(=O)Nc2cc(C(F)(F)F)ccc2N2CCOCC2)c1,> 80 µM (inactive)
7,CCCCOc1ccc(NC(=O)C(=O)NCCCn2ccnc2)cc1,44.6 µM (inactive)
8,O=C(CN1C(=O)c2ccccc2S1(=O)=O)c1ccc(Cl)cc1Cl,17.9 µM
9,CN1C(=O)CC(c2ccco2)Sc2ccccc21 (stereo unspecified),> 80 µM (inactive)
10,Cn1c(=O)cc(OCC(=O)N2CCC3(CC2)OCCO3)c2ccccc21,> 80 µM (inactive)
11,CC(C)Oc1ccc(C(=O)Nc2ccc(N(C)C)cc2)cc1,> 80 µM (inactive)
12,CCOc1ccc(-c2c[n+]3c(n2-c2ccccc2)CCCCC3)cc1,3.28 µM
13,Cc1cc(C)cc(OCc2nnc(SCC(=O)c3ccccc3)o2)c1,23.7 µM (inactive)
14,CCOC(=O)c1cc2c(=O)n3ccccc3nc2n(CC(C)C)c1=NC(=O)c1c(-c2c(F)cccc2Cl)noc1C,5.33 µM
15,CCOC(=O)C1CCN(c2ncnc3c2cnn3-c2ccc(Cl)cc2)CC1,1.25 µM
16,O=C(Oc1cccc(/C=N/Nc2nc(N3CCOCC3)nc(N3CCOCC3)n2)c1)c1ccco1,> 80 µM (inactive)
17,CCOc1cc(/C=N\Nc2nc(Nc3ccccc3)nc(N3CCOCC3)n2)ccc1OC(=O)c1ccco1,> 80 µM (inactive)
18,O=C(CN1C(=O)c2ccccc2S1(=O)=O)c1ccc(OC(F)F)cc1,5.26 µM
19,Cc1ccc(-c2nsc3c(N4CCC(C(N)=O)CC4)ncnc23)cc1,> 80 µM (inactive)
20,CC1CCN(c2c(NCc3ccc(C(=O)N4c5ccccc5CC4C)cc3)c(=O)c2=O)CC1 (stereo unspecified),8.73 µM
21,Cc1ccc(C)c(-n2nnnc2Sc2nnnn2-c2ccccc2)c1,6.7 µM
22,CCOc1ccc(/C=C2\SC(=S)N(CCC(=O)Nc3ccc(C(=O)O)cc3)C2=O)cc1,> 80 µM (inactive)
23,CCN(CC)CCCN=Cc1c(-c2ccccc2)[nH]n(-c2nc3ccccc3s2)c1=O,> 80 µM (inactive)

row,SMILES,IC50
1,Cc1ccc(O)c(NC(=O)COc2cc(C)ccc2C)c1,> 80 µM (inactive)
2,COc1cc(C[C@@H]2C(=O)OC[C@H]2Cc2ccc(OC)c(OC)c2)ccc1O,0.66 µM
3,COc1ccc(C(=O)N/N=C/c2ccc(OC)c(CN3CCCc4ccccc43)c2)cc1,> 80 µM (inactive)
4,CCN(CC)c1ccc(/C=C2/C(=O)ON=C2C)cc1,> 80 µM (inactive)
5,O=C(Nc1nc2c(Br)cc(Br)cc2c(=O)s1)c1ccco1,> 80 µM (inactive)
6,CCn1c(=O)c2cc(C(=O)NCc3cccs3)sc2c2ccccc21,> 80 µM (inactive)
7,CCc1ccc(/C=C2/SC(=S)N(CCC(=O)Nc3ccc(C(=O)O)cc3)C2=O)cc1,> 80 µM (inactive)
8,CCc1ccc(/C=C2\SC(=S)N(CCC(=O)Nc3cc(C)on3)C2=O)cc1,> 80 µM (inactive)
9,COC(=O)[C@@H]1Cc2c([nH]c3ccccc23)C(C)(C)N1C(=O)CCl,36 µM (inactive)
10,CC1=CC(C)(C)Nc2ccc(OC(=O)c3ccco3)cc21,16.3 µM
11,Cc1cc(NC(=O)CCCN2C(=O)/C(=C/c3ccccc3Cl)SC2=S)no1,> 80 µM (inactive)
12,CCn1c(=O)cc(OCC(=O)Nc2ccc(OC)c(OC)c2)c2ccccc21,70.3 µM (inactive)
13,Cc1ccc(-c2c[n+]3c(n2-c2ccccc2)SCC3)cc1,7.4 µM
14,CC1CN(S(=O)(=O)c2ccc(C(=O)Nc3nc(-c4cc5ccccc5o4)cs3)cc2)CC(C)O1 (stereo unspecified),< 0.16 µM
15,Cc1cc(C)c(S(=O)(=O)NCc2ccncc2)c(C)c1,0.97 µM
16,COc1ccc(-c2nsc(SCC(=O)Nc3cc(C)on3)n2)cc1,> 80 µM (inactive)
17,COc1ccc(-c2ccc(C(C)=O)cc2)cc1[C@H]1[C@H]2C=CC[C@@H](C)[C@@H]2C(=O)N1Cc1ccccc1,14.2 µM
18,Cc1c(CCC(=O)N2CCC[C@H]2C(=O)O)c(=O)oc2cc3oc4c(c3cc12)CCCC4,8.43 µM
19,COc1ccc(/C=C2\SC(=S)N(CCCC(=O)Nc3ccc(O)cc3)C2=O)cc1,> 80 µM (inactive)
20,Cn1c(=O)cc(OCCCC(=O)NC2CCCC2)c2ccccc21,46 µM (inactive)
21,Cc1ccc(-c2cc(C(=O)NCCCN3CCOCC3)no2)cc1,> 80 µM (inactive)
22,COc1cc(OC)cc(-c2cc3nc(C)c(CCC(=O)Nc4nc(C)cs4)c(C)n3n2)c1,> 80 µM (inactive)
23,C=CCOc1ccc(/C=C2\SC(=S)N(CCC(=O)O)C2=O)cc1,51.4 µM (inactive)
